From US7915009B2, “Activation and inhibition of the immune system” (The Mathilda and Terence Kennedy Institute of Rheumatology …, priority 1999, dated 2011)
Entries after “also recorded” stand apart in the source; their conditions may differ. Where a SMILES comes first, the peptide text is derived from it. The star is where a group is joined. Cbz = O=C(OCc1ccccc1)*; OtBu = CC(C)(C)O*

Key:
[1] = test system: mature DC; assay: Cell viability of DC treated with PSI, propidium iodide staining (FACS); format: cell-based, human; conditions: PSI for 4 h, analysed 6 days after treatment
Experimental: FIG. 1. Cell viability of DC treated with PSI. Mature DC was either left untreated, or treated with various doses of PSI for 4 h. After wash, cells were cultured in RPMI 1640 supplemented as described without monocyte condition medium. 6 days after treatment, cells were resuspended in PBS containing 10 μg/ml. Of propidium iodide PI and analysed on FACS scan.
(§1) PSI is an inhibitor of proteosome activity and as such is capable of inhibiting induced IκB degradation and subsequent NF-κB activation. We used PSI to examine the function of NFκB in dendritic cell (DC) activity particularly in relation to antigen presentation and activation of T cells. We have previously shown that PSI is capable of inhibiting NFκB activation at concentrations up to 1 μM. To test the effect of PSI on DC viability mature DC were incubated with concentrations of PSI, ranging from 0.1 μM to 5 μM. […] To assess the role of NFκB in DC function, mature DC were incubated with 0.3 μM, 0.5 μM or 1 μM PSI for […] and the cells washed. As PSI is an activated peptide that binds irreversibly to the proteosomes, the function of the DC can be assessed over the 6 day period of the MLR despite the short period of drug exposure.

[2] = test system: allo-lymphocytes; assay: Cytokine production of allo-lymphocytes co-cultured with PSI-treated DC (ELISA); format: cell-based, human
Experimental: FIG. 8. Cytokine production of allo-lymphocytes co-cultured with vehicle treated or PSI treated DC. Mature DC was treated with vehicle or PSI (1 μM) as described above. Allo-lymphocytes and each DC were plated at 2×10^5 cells per well on a 96 well plate and stimulated with PMA (10 nM) or left unstimulated for […].
(§2) Cells were pre-treated with vehicle or 1 μM of PSI for 4 h, or infected with adenoviral vectors for 2 h. PSI-treated DC were then directly used in experiments whereas infected cells were further cultured for 2 days to allow overexpression of the relevant protein to occur. 24 h after stimulation of the cells, culture supernatants were collected and kept frozen. Cytokine levels in cell culture supernatants were measured by standard 2 or 3 layer sandwich ELISA techniques using specific monoclonal and polyclonal antibodies for TNFα, IL-4, IL-6, IL-8, IL-12 and IFNγ. Antibody pairs and standards for these assays have been purchased from Pharmingen, with the exception of IL-12 reagents that were gifted from the Genetics Institute (Boston, USA).

[3] = test system: allo-lymphocytes; assay: Re-stimulation of allo-lymphocytes pre-cultured with PSI-treated DC; format: cell-based, human
Experimental: FIG. 6. Impaired response of allo-lymphocytes pre-cultured with PSI treated or non-treated DC. Lymphocytes were co-cultured with 1/10 number of PSI treated (●, ▴) or non-treated DC (∘,Δ). After 2 days, each DC were removed by CD83, CD86 coated plate. Lymphocytes were cultured for another 4 days using vehicle treated DC (∘,●), or PSI (1 μM) treated DC (Δ,▴). Proliferation was determined by ^3H-TdR uptake assay. (Each point represents mean+/−SEM from three separate experiments).
(§3) A means of detecting whether PSI-DC were generating inhibitory effects is to culture T cells with a mixture of PSI treated and untreated DC. […] Next we investigated whether exposure to PSI-DC would induce long term unresponsiveness in the T cells. T cells were exposed to normal or PSI-DC as previously described after which the T cells were collected and were treated with a DC for a second time and the proliferative response measured (FIG. 6). […] This would indicate that the effects of exposure to PSI-DC are prolonged and the T cells acquire a non-responsive or anergic state.
Further questions as to the mechanism of the lack of the T cell proliferative response were addressed. It could simply be due to lack of immunogenicity of the DC, or alternatively it could be due to the induction of a form of immunological tolerance or of immune regulation. The mechanism was analysed further by coculture experiments, adding PSI treated DC to untreated DC, and analysing the effect of the mixture on unprimed T cells in the MLR. […] Similar effects have been reported in a variety of tolerance models Zanders et al (1983) Nature 303, 625-627; Zanders et al (1985) J. Immunol. 15, 302-305; Park et al (1997) Eur. J. Immunol. 15, 302-305; and Waldmann & Cubbold (1998) Ann. Rev. Immunol. 16, 619-644 and so we asked whether PSI treated DC induced immunological tolerance. This was assessed by first exposing allogeneic T cells to PSI treated DC for 2 days, and then removing them, by panning with anti CD83 and anti CD86. […]

[4] = test system: mature DC; assay: Cytokine production of DC treated with PSI (ELISA); format: cell-based, human; conditions: PSI 1 μM
Experimental: FIG. 9. Cytokine productions of DC treated with vehicle or PSI. Mature DC was treated with vehicle or PSI (1 μM) as described above. Each DC and allo-lymphocytes were plated at 2×10^5 cells per well on a 96 well plate and stimulated with PMA (10 nM) or left unstimulated for 48 hr. Supernatants were analysed for IL-6, IL-8, IL-12 and TNFα by ELISA.
as §2

[5] = test system: mature DC; assay: Allogeneic MLR with PSI-treated DC, 3H-TdR uptake; format: cell-based, human; conditions: day 6
Experimental: FIG. 2. Immunostimulatory capacity of DC treated with the proteosome inhibitor Cbz-Ile-Glu(O-tert-bytyl)-Ala-leucinal (PSI). Mature DC was treated with PSI (0.1 μM: ▴), (0.5 μM: ▪), (1, μM: ●) or without PSI (∘) for 4 h. After wash, different numbers of each category of DC and […] of allo-lymphocytes were plated on a 96 well plate. Proliferation was determined at day 6 using ^3H-TdR uptake assay. (Each point represents mean+/−SEM from five separate experiments).
To assay the immunostimulatory capacity of non-irradiated or irradiated (3000 rad from a ^137Cs source) DC, uninfected, adenovirus-infected, LPS-treated or monocyte-conditioned medium-treated DC were cultured in graded doses with 1×10^5 of allogeneic elutriated T cells in quadruplicate in a 96-well flat-bottom microtiter plate (Falcon). Proliferation was measured on day 5 by thymidine incorporation after a 16 h pulse with [^3H] thymidine (0.5 μCi/well; Amersham Life Science, UK).
as §1

[6] = test system: allo-lymphocytes; assay: Surface antigens on allo-lymphocytes cultured with PSI-treated DC (FACScan); format: cell-based, human
Experimental: FIG. 7. […] Lymphocytes were cultured for 6 days as the same conditions with allo-MLR experiment using vehicle treated DC (green line), or PSI (1 μM) treated DC (red line). Each lymphocytes were phenotyped with MoAbs, CD3, CD25 (PE conjugated; Pharmingen), (CD54) (PE conjugated; Serotec), CD50 (FITC conjugated; Serotec) and analysed by FACScan.
(§4) For FACS staining, cells were first harvested. For adherent cells where surface receptors need to be intact, a warm 2% EDTA in PBS solution was used for 20 min at 37° C. After cells were in solution, they were washed once and then resuspended in ice-cold FACS washing buffer. All subsequent incubations were performed at 4° C. For each analysis, 5×10^5 cells were incubated with the relevant antigen-specific antibody or isotype control for 30 min and then washed twice with FACS washing buffer. Cells were then examined by flow cytometry. cells were ready for analysis on a FACScan flow cytometer (Becton and Dickinson) by using the CellQuest (Becton Dickinson). Directly conjugated monoclonal antibodies to HLA-DR, HLA-A,B,C, CD80, CD86, CD3, CD14 and CD25 were purchased by Pharmingen, San Diego, USA).

[7] = test system: allo-lymphocytes; assay: Allo-MLR with mixtures of PSI-treated and vehicle-treated DC; format: cell-based, human; conditions: judged from slope of proliferative response curves, PSI 1 μM
Experimental: FIG. 5. PSI pre-treated DC inhibit the growing ability of lymphocytes in allo-MLR. Mature DC was treated with PSI as described above. After washing, each DC was mixed to make different compositions: vehicle treated DC only (∘), ¼ number of PSI treated DC mixed with ¾ vehicle treated DC (●), ⅛ number of PSI treated DC mixed with […] vehicle treated DC (▪), or PSI treated DC only (▴). Graded number of each mixture and 10^5 cells of allo-lymphocytes were plated on a 96 well plate. Proliferation was determined at day 6 by ^3H-TdR uptake assay.
as §3

[8] = test system: NFκB; conditions: previously shown by the inventors; cited from earlier work
[9] = test system: mature DC; assay: Surface antigen expression on PSI-treated DC (FACScan); format: cell-based, human
Experimental: FIG. 3. Effect of PSI on the expression of surface antigens was studied using monoclonal antibodies, HLA-DR, CD86 (PE conjugated); Pharmingen, San Diego, Calif.). on day 6 after PSI treatment, populations of untreated (green line), PSI (0.1 μM) treated (blue dotted line), PSI (1 μM) treated (red dotted line) were phenotyped with the MoAbs listed above and analysed on FACScan (Becton Dickinson).
as §4

[10] = 6 days with PSI (1 μM) treated DC
[11] = 1 μM PSI, 6 days after treatment

SMILES: CC[C@H](C)[C@H](NC(=O)OCc1ccccc1)C(=O)N[C@@H](CCC(=O)OC(C)(C)C)C(=O)N[C@@H](C)C(=O)N[C@H](C=O)CC(C)C [PSI, Cbz-Ile-Glu(O-tert-bytyl)-Ala-leucinal] (Cbz-IE(OtBu)AL-aldehyde)
- PSI concentrations showing some toxicity (propidium iodide staining) [1]: > 5 µM
- IFNγ production by T cells in response to PSI-DC ([2]; PSI 1 μM): not produced
- IL-2 production by T cells in response to PSI-DC ([2]; PSI 1 μM): not produced
- IL-4 production by T cells in response to PSI-DC ([2]; PSI 1 μM): unaffected; also recorded: not changed
- inhibition of IFNγ production of T cells exposed to PSI treated DC ([2]; PSI treated DC): more than 90%
- inhibition of IL-2 production of T cells exposed to PSI treated DC ([2]; PSI treated DC): more than 90%
- response of T cells stimulated with PSI-DC prior to normal DC ([3]; 2 days PSI-DC, then 4 days normal DC): unable to respond; also recorded: lack of response
- response of T cells exposed to PSI-DC on the second round after normal DC ([3]; PSI 1 μM): failed to proliferate
- response of T cells to two rounds of PSI-DC ([3]; PSI 1 μM): did not respond
- IL-6 expression from PSI-DC during the MLR [4]: to a lesser extent, IL-6 expression was inhibited; also recorded: not changed
- IL-8 production from PSI-DC during the MLR [4]: unaffected; also recorded: not changed
- IL-12 production by PSI treated DC [4]: Reductions
- TNF expression from PSI-DC during the MLR [4]: inhibited; also recorded: Reductions
- T cell proliferation in allogeneic MLR ([5]; DC pretreated with PSI 0.1 μM): no detectable effect
- T cell proliferation in allogeneic MLR ([5]; DC pretreated with PSI 0.5 μM): failure of the T cells to proliferate
- T cell proliferation in allogeneic MLR ([5]; DC pretreated with PSI 1 μM): failure of the T cells to proliferate
- yields of T cells after culture with PSI treated DC ([6]; 6 days culture): lower
- CD3 expression on T lymphocytes [6, 10]: reduced expression
- CD11a (LFA-1) expression on T lymphocytes [6, 10]: only marginally reduced; also recorded: some reduction
- CD25 expression on T lymphocytes [6, 10]: virtually abolished
- CD54 (ICAM-1) expression on T lymphocytes [6, 10]: reduced to a degree similar to CD3; also recorded: some reduction
- reduction of proliferative response by ⅛ or ¼ PSI-DC mixed with untreated DC [7]: 3-5 fold
- concentrations at which PSI inhibits NFκB activation [8]: up to 1 μM
- CD86 expression on DC [9, 11]: reduced, to virtually background levels; also recorded: marked reduction
- HLA-DR expression on DC [9, 11]: major reduction; also recorded: marked reduction
- HLA-DR expression on DC ([9]; 0.1μ PSI, 6 days after treatment): minimal effect
- CD80 expression on DC ([9]; PSI-treated DC): downregulation
